Experimental data as given in patent publication US11236059B2, “Targeted cytotoxic ratjadone derivatives and conjugates thereof” (HELMHOLTZ-ZENTRUM FUER INFEKTIONSFORSCHUNG GMBH, priority 2017, dated 2022).
Read-outs that look alike come from different tables or passages of the source.

Experiments:
Assay type in all cases: cell-based
[1] = test system: MCF-7 (DSMZ ACC 115) cells; assay: cells
Method: (§1) 60 μL of serial dilutions of the test compound were given to 120 μL of suspended cells (50.000/mL) in wells of 96-well plates. After 5 days of incubation growth inhibition (IC50) was determined using an MTT assay.^[64]

[2] = test system: SKOV-3 (DSMZ ATCC HTB 77) cells; assay: cells
Method: as §1

CRM1 = molecular target: T1, CRM1 (Homo sapiens, UniProt O14980); assay: Monitoring export inhibitory activity (translocation biosensor, HeLaRevBio cells)
T1 construct: HeLa cells stably expressing a fluorescent translocation biosensor (HeLaRevBio); endogenous in cells; host or cells: HeLa (HeLaRevBio in A7; HeLa in A8)
Method: Export inhibitory ability of compounds was evaluated with the translocation biosensor system. This cellular assay depends on a recombinantly expressed fusion protein consisting of a nuclear localization signal (SV40-NLS), glutathione S-transferase (GST), green fluorescent protein (GFP) and a nuclear export signal (HIV1-RevNES). Due to the two transport signals (NLS/NES), the biosensor is permanently shuttling between nucleus and cytoplasm but resides prominently in the cytoplasm due to a comparatively stronger NES. Export inhibiting compound induce a nuclear accumulation of the GFP-signal^[65,66] Cell lines were maintained as recommended by the American Type Culture Collection in DMEM containing 5% glutamine (Thermo Fisher Scientific, Waltham, USA) supplemented with 10% FBS (Thermo Fisher Scientific, Waltham, USA). For quantifying the nuclear export inhibitory effect, HeLa cells stably expressing a fluorescent translocation biosensor (HeLaRevBio)^[67] were seeded into black 96 well μclear plates (Greiner, Germany). They next day compounds were added covering an appropriate concentration range. After 1h of incubation, cells were fixed in 4% PFA for 10 min and permeabilized with 0.1% Triton X 100 in PBS for 5 min. After washing with PBS nuclei were labeled with Hoechst H33342 (30 min 10 μg/ml). The intracellular distribution of the biosensor-dependent GFP signal was quantitatively evaluated with the high content imaging system ImageXpress MicroXLS (Molecular Devices, Sunnyvale, USA). By using the translocation enhanced application module (Molecular Devices, Sunnyvale, USA) the GFP-intensity was quantified in the cytoplasm and nuclear region. As final readout the difference of Mean Inner and Mean Outer Intensity was calculated. IC50s of nuclear export inhibition were calculated using Sigma Plot with four parameter logistics curve regression (Systat Software GmbH, Erkrath, Germany). […] The following day compounds were added at 125 nM final concentration.

[3] = test system: KB 3.1 (DSMZ ACC 158) cells; assay: Cell proliferation assay under folate free conditions; conditions: RPMI-medium without folic acid + 10% dialyzed fetal calf serum; MTT assay after 1, 2 and 5 days (day of the value not given); read-out: IC50 [nM] KB 3.1 (Folate-Ratjadone Conjugates)
Method: KB 3.1 (DSMZ ACC 158) cells were cultivated at 37° C. and 10% C002 in RMPI-medium without folic acid (Gibco) with 10% fetal calf serum (Gibco). 120 μL of suspended cells (100.000/mL) were seeded in wells of 96-well plates and after 24 h at 37° C. and 10% CO2 the medium was removed, the cells were washed with PBS and RPMI-medium without folic acid (Gibco)+10% dialyzed fetal calf serum (Sigma) were added to the cells, before after additional 24 h at 37° C. and 10% C002 60 μL of serial dilutions of the test compound were given to cells. After 1, 2 and 5 days of incubation growth inhibition (IC50) was determined using an MTT assay.^[64]

[4] = test system: A549 (DSMZ ACC 107) cells; assay: cells; conditions: growth inhibition, 5 days of incubation, MTT assay; read-out: IC50 [nM] A-549 (Gonadoliberin-Ratjadone Conjugates)
Method: as §1

[5] = HeLa cells stably expressing translocation biosensor, 1h of incubation, read-out: IC50 [nM] CRM1 (nuclear export inhibition)

T1 sequence (O14980 whole entry): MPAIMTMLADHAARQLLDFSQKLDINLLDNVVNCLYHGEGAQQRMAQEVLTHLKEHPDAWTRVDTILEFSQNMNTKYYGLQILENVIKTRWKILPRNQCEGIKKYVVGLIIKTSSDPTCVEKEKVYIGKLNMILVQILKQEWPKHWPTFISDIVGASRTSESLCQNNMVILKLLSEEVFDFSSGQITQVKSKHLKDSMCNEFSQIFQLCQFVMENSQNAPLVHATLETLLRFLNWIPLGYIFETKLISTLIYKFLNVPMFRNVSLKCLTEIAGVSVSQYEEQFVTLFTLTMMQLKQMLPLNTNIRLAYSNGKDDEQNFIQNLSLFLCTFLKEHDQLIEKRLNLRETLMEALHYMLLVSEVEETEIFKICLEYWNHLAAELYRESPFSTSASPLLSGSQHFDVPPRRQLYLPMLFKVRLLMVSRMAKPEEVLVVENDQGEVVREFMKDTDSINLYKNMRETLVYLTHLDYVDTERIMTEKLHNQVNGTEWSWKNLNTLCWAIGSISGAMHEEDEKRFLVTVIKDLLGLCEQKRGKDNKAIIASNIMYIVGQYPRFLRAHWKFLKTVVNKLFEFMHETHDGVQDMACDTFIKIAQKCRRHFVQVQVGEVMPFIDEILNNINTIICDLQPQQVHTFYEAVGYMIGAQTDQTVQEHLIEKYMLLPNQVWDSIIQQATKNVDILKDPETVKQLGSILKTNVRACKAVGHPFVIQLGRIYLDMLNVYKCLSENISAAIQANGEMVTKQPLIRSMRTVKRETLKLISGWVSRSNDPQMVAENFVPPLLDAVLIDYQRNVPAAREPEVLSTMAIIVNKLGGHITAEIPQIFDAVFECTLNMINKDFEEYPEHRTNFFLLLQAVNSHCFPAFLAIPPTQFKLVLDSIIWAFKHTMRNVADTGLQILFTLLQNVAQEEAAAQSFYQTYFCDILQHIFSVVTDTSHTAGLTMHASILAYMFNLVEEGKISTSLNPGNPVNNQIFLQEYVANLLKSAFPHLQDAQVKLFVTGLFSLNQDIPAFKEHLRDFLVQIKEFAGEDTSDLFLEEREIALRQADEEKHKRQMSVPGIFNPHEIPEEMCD

Compound	IC50 (CRM1; [5]) [nM]	IC50 [3] [nM]	IC50 [4] [nM]	other results
C/C=C/[C@@H]1O[C@H]([C@H](N)/C=C/C=C(\C)C[C@@H](C)/C=C(C)\C=C\[C@H]2CC=CC(=O)O2)C[C@@H](O)[C@@H]1C [16R-Amino-Ratjadone 11, (R)-6-((1E,3Z,5R,7E,9E,11R)-11-amino-11-((2S,4R,5S,6S)-4-hydroxy-5-methyl-6-((E)-prop-1-en-1-yl)tetrahydro-2H-pyran-2-yl)-3,5,7-trimethylundeca-1,3,7,9-tetra-en-1-yl)-5,6-dihydro-2H-pyran-2-one]	2.7			IC50 ([1]; Homo sapiens, MCF7, 120 h, read-out: IC50 [nM] MCF-7, growth inhibition, 5 days of incubation, MTT assay): 0.26 nM; IC50 ([1]; read-out: IC50 [nM] MCF-7, growth inhibition, 5 days of incubation, MTT assay): 0.36 nM; IC50 ([2]; Homo sapiens, SK-OV-3, 120 h, read-out: IC50 [nM] SK-OV-3, growth inhibition, 5 days of incubation, MTT assay): 0.61 nM; IC50 ([2]; read-out: IC50 [nM] SK-OV-3, growth inhibition, 5 days of incubation, MTT assay): 0.81 nM
C/C=C/[C@@H]1O[C@H]([C@@H](/C=C/C=C(\C)C[C@@H](C)/C=C(C)\C=C\[C@H]2CC=CC(=O)O2)NC(=O)OCc2ccc(NC(=O)[C@H](CCCNC(N)=O)NC(=O)[C@@H](NC(=O)OC[C@@H]3[C@@H]4CCc5nnn(CCC[C@H](NC(=O)[C@@H](CC(=O)O)NC(=O)[C@@H](CC(=O)O)NC(=O)[C@@H](CC(=O)O)NC(=O)CC[C@H](NC(=O)c6ccc(NCc7cnc8nc(N)nc(O)c8n7)cc6)C(=O)O)C(=O)N[C@H](CC(=O)O)C(=O)N[C@H](CC(=O)O)C(=O)N[C@H](CCCCN)C(=O)O)c5CC[C@@H]43)C(C)C)cc2)C[C@@H](O)[C@@H]1C [FA-10-Val-Cit-PABA-16R-Aminoratjadone]		35.3		
C/C=C/[C@@H]1O[C@H]([C@@H](/C=C/C=C(\C)C[C@@H](C)/C=C(C)\C=C\[C@H]2CC=CC(=O)O2)NC(=O)OCCc2cn(CCC[C@H](NC(=O)CC[C@H](NC(=O)CC[C@H](NC(=O)c3ccc(NCc4cnc5nc(N)nc(O)c5n4)cc3)C(=O)O)C(=O)O)C(=O)O)nn2)C[C@@H](O)[C@@H]1C [FA-7-16R-Aminoratjadone, N^2-(4-(((2-amino-4-hydroxypteridin-6-yl)methyl)amino)benzoyl)-N^5—((S)-1-carboxy-4-(((S)-1-carboxy-4-(4-(2-((((1R,2E,4E,7R,8Z,10E)-1-((2S,4R,5S,6S)-4-hydroxy-5-methyl-6-((E)-prop-1-en-1-yl)tetrahydro-2H-pyran-2-yl)-5,7,9-trimethyl-11-((R)-6-oxo-3,6-dihydro-2H-pyran-2-yl)undeca-2,4,8,10-tetraen-1-yl)carbamoyl)oxy)ethyl)-1H-1,2,3-triazol-1-yl)butyl)amino)-4-oxobutyl)-L-glutamine]		190		
C/C=C/[C@@H]1O[C@H]([C@@H](/C=C/C=C(\C)C[C@@H](C)/C=C(C)\C=C\[C@H]2CC=CC(=O)O2)NC(=O)OCc2ccc(NC(=O)[C@H](CCCNC(N)=O)NC(=O)[C@@H](NC(=O)OC[C@@H]3[C@@H]4CCc5nnn(CCC[C@H](NC(=O)[C@@H](CC(=O)O)NC(=O)[C@@H](CC(=O)O)NC(=O)[C@H](CCCn6nnc7c6CC[C@H]6[C@@H](CC7)[C@H]6COC(=O)N[C@H](C(=O)N[C@@H](CCCNC(N)=O)C(=O)Nc6ccc(COC(=O)N[C@H](/C=C/C=C(\C)C[C@@H](C)/C=C(C)\C=C\[C@H]7CC=CC(=O)O7)[C@@H]7C[C@@H](O)[C@H](C)[C@H](/C=C/C)O7)cc6)C(C)C)NC(=O)[C@@H](CC(=O)O)NC(=O)[C@@H](CC(=O)O)NC(=O)[C@H](CCCn6nnc7c6CC[C@H]6[C@@H](CC7)[C@H]6COC(=O)N[C@H](C(=O)N[C@@H](CCCNC(N)=O)C(=O)Nc6ccc(COC(=O)N[C@H](/C=C/C=C(\C)C[C@@H](C)/C=C(C)\C=C\[C@H]7CC=CC(=O)O7)[C@@H]7C[C@@H](O)[C@H](C)[C@H](/C=C/C)O7)cc6)C(C)C)NC(=O)[C@@H](CC(=O)O)NC(=O)[C@@H](CC(=O)O)NC(=O)CC[C@H](NC(=O)c6ccc(NCc7cnc8nc(N)nc(O)c8n7)cc6)C(=O)O)C(=O)O)c5CC[C@@H]43)C(C)C)cc2)C[C@@H](O)[C@@H]1C [FA-11-(Val-Cit-PABA-16R-Aminoratjadone)3]		45		
C/C=C/[C@@H]1O[C@H]([C@@H](/C=C/C=C(\C)C[C@@H](C)/C=C(C)\C=C\[C@H]2CC=CC(=O)O2)NC(=O)OCc2ccc(NC(=O)[C@H](CCCNC(N)=O)NC(=O)[C@@H](NC(=O)OC[C@@H]3[C@@H]4CCc5nnn(CCC[C@@H](NC(=O)[C@H](Cc6ccc(O)cc6)NC(=O)[C@H](CO)NC(=O)[C@H](Cc6c[nH]c7ccccc67)NC(=O)[C@H](Cc6c[nH]cn6)NC(=O)[C@@H]6CCC(=O)N6)C(=O)N[C@@H](CC(C)C)C(=O)N[C@@H](CCCNC(=N)N)C(=O)N6CCC[C@H]6C(=O)NCC(N)=O)c5CC[C@@H]43)C(C)C)cc2)C[C@@H](O)[C@@H]1C			23	
C/C=C/[C@@H]1O[C@H]([C@@H](/C=C/C=C(\C)C[C@@H](C)/C=C(C)\C=C\[C@H]2CC=CC(=O)O2)NC(=O)OCc2ccc(NC(=O)[C@H](CCCNC(N)=O)NC(=O)[C@@H](NC(=O)OCCc3cn(CCC[C@H](NC(=O)[C@H](Cc4ccc(O)cc4)NC(=O)[C@H](CO)NC(=O)[C@H](Cc4c[nH]c5ccccc45)NC(=O)[C@H](Cc4c[nH]cn4)NC(=O)[C@@H]4CCC(=O)N4)C(=O)N[C@@H](CC(C)C)C(=O)N[C@@H](CCCNC(=N)N)C(=O)N4CCC[C@H]4C(=O)NCC(N)=O)nn3)C(C)C)cc2)C[C@@H](O)[C@@H]1C			1200	
C/C=C/[C@@H]1O[C@H]([C@@H](N)/C=C/C=C(\C)C[C@@H](C)/C=C(C)\C=C\[C@H]2CC=CC(=O)O2)C[C@@H](O)[C@@H]1C [16S-Amino-Ratjadone 12, (R)-6-((1E,3Z,5R,7E,9E,11 S)-11-amino-11-((2S,4R,5S,6S)-4-hydroxy-5-methyl-6-((E)-prop-1-en-1-yl)tetrahydro-2H-pyran-2-yl)-3,5,7-trimethylun-deca-1,3,7,9-tetraen-1-yl)-5,6-dihydro-2H-pyran-2-one]	2.8			
C/C=C/[C@@H]1O[C@H]([C@H](O)/C=C/C=C(\C)C[C@@H](C)/C=C(C)\C=C\[C@H]2CC=CC(=O)O2)C[C@@H](O)[C@@H]1C [Ratjadone A 1, (R)-6-((1E,3Z,5R,7E,9E,11R)-11-hydroxy-11-((2S,4R,5S,6S)-4-hydroxy-5-methyl-6-((E)-prop-1-en-1-yl)tetrahydro-2H-pyran-2-yl)-3,5,7-trimethylundeca-1,3,7,9-tetraen-1-yl)-5,6-dihydro-2H-pyran-2-one, reference compound]	1.2			
C/C=C/[C@@H]1O[C@H]([C@@H](/C=C/C=C(\C)C[C@@H](C)/C=C(C)\C=C\[C@H]2CC=CC(=O)O2)NC(=O)OCCc2cn(CCC[C@H](NC(=O)[C@H](Cc3ccc(O)cc3)NC(=O)[C@H](CO)NC(=O)[C@H](Cc3c[nH]c4ccccc34)NC(=O)[C@H](Cc3c[nH]cn3)NC(=O)[C@@H]3CCC(=O)N3)C(=O)N[C@@H](CC(C)C)C(=O)N[C@@H](CCCNC(=N)N)C(=O)N3CCC[C@H]3C(=O)NCC(N)=O)nn2)C[C@@H](O)[C@@H]1C [L-Orn-LHRH-16R-Aminoratjadone]			1600	IC50 (CRM1): 1060 nM
C/C=C/[C@@H]1O[C@H]([C@@H](/C=C/C=C(\C)C[C@@H](C)/C=C(C)\C=C\[C@H]2CC=CC(=O)O2)NC(=O)OCc2ccc(NC(=O)[C@H](CCCNC(N)=O)NC(=O)[C@@H](NC(=O)OC[C@@H]3[C@@H]4CCc5nnn(CCC[C@@H](NC(=O)[C@H](Cc6ccc(O)cc6)NC(=O)[C@H](CO)NC(=O)[C@H](Cc6c[nH]c7ccccc67)NC(=O)[C@H](Cc6c[nH]cn6)NC(=O)[C@@H]6CCC(=O)N6)C(=O)N[C@@H](CC(C)C)C(=O)N[C@@H](CCCNC(=N)N)C(=O)N6CCC[C@H]6C(=O)NNC(N)=O)c5CC[C@@H]43)C(C)C)cc2)C[C@@H](O)[C@@H]1C			12.8	
